The supplement of paper PMC10307832

Assays:
Assay in all cases: relative viability (nuclei count vs DMSO), 5 days (fraction); higher = more cells survive
NCI-H596 = tested on: NCI-H596
In short: (§1)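 Dosing by pin tool came one day after lung cancer cell lines were seeded in 1536-well plates, using either one drug or a fixed anchor-drug dose plus five library-drug doses (not always all listed) in √10 steps. After 5 days, nuclei were counted on 4× images. Relative viability is treated-well nuclei count divided by vehicle-well nuclei count, and values are medians of duplicate plates.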

BEN = tested on: BEN
In short: as §1

NCI-H2087 = tested on: NCI-H2087
In short: as §1

NCI-H727 = tested on: NCI-H727
In short: as §1

NCI-H3122 = tested on: NCI-H3122
In short: as §1

NCI-H23 = tested on: NCI-H23
In short: as §1

EMC-BAC-2 = tested on: EMC-BAC-2
In short: as §1

NCI-H647 = tested on: NCI-H647
In short: as §1

HARA = tested on: HARA
In short: as §1

NCI-H838 = tested on: NCI-H838
In short: as §1

HCC-44 = tested on: HCC-44
In short: as §1

NCI-H2126 = tested on: NCI-H2126
In short: as §1

LCLC-103H = tested on: LCLC-103H
In short: as §1

NCI-H2023 = tested on: NCI-H2023
In short: as §1

201T = tested on: 201T
In short: as §1

NCI-H441 = tested on: NCI-H441
In short: as §1

NCI-H650 = tested on: NCI-H650
In short: as §1

LOU-NH91 = tested on: LOU-NH91
In short: as §1

NCI-H1395 = tested on: NCI-H1395
In short: as §1

NCI-H2347 = tested on: NCI-H2347
In short: as §1

NCI-H1993 = tested on: NCI-H1993
In short: as §1

O=c1cc(-c2cccc3c2Sc2ccccc2S3)oc(N2CCOCC2)c1 + C[C@]1(O)C[C@@H](c2nc(-c3ccc4ccc(-c5ccccc5)nc4c3)c3c(N)nccn32)C1 [Linsitinib] (partner 1 µM)
relative viability (NCI-H596; first compound 0.08 µM): 1.02 | relative viability (NCI-H596; first compound 0.253 µM): 1.2 | relative viability (NCI-H596; first compound 0.8 µM): 1.14 | relative viability (NCI-H596; first compound 2.53 µM): 1.08 | relative viability (NCI-H596; first compound 8 µM): 1.15 | relative viability (BEN; first compound 0.08 µM): 0.996 | relative viability (BEN; first compound 0.253 µM): 1.04 | relative viability (BEN; first compound 0.8 µM): 1.14 | relative viability (BEN; first compound 2.53 µM): 0.898 | relative viability (BEN; first compound 8 µM): 1.23 | relative viability (NCI-H2087; first compound 0.08 µM): 1.1 | relative viability (NCI-H2087; first compound 0.253 µM): 1.03 | relative viability (NCI-H2087; first compound 0.8 µM): 0.927 | relative viability (NCI-H2087; first compound 2.53 µM): 0.952 | relative viability (NCI-H2087; first compound 8 µM): 1.01 | relative viability (NCI-H727; first compound 0.253 µM): 0.284 | relative viability (NCI-H727; first compound 2.53 µM): 0.314 | relative viability (NCI-H727; first compound 8 µM): 0.304 | relative viability (NCI-H3122; first compound 0.08 µM): 1.07 | relative viability (NCI-H3122; first compound 0.253 µM): 1.16 | relative viability (NCI-H3122; first compound 0.8 µM): 1.06 | relative viability (NCI-H3122; first compound 2.53 µM): 0.99 | relative viability (NCI-H3122; first compound 8 µM): 1.07 | relative viability (NCI-H23; first compound 0.08 µM): 0.596 | relative viability (NCI-H23; first compound 0.253 µM): 0.738 | relative viability (NCI-H23; first compound 0.8 µM): 0.578 | relative viability (NCI-H23; first compound 2.53 µM): 0.684 | relative viability (NCI-H23; first compound 8 µM): 0.574 | relative viability (EMC-BAC-2; first compound 0.08 µM): 0.828 | relative viability (EMC-BAC-2; first compound 0.253 µM): 0.9 | relative viability (EMC-BAC-2; first compound 0.8 µM): 0.842 | relative viability (EMC-BAC-2; first compound 2.53 µM): 0.817 | relative viability (EMC-BAC-2; first compound 8 µM): 0.878 | relative viability (NCI-H647; first compound 0.08 µM): 1.3 | relative viability (NCI-H647; first compound 0.253 µM): 1.16 | relative viability (NCI-H647; first compound 0.8 µM): 1.16 | relative viability (NCI-H647; first compound 2.53 µM): 1.03 | relative viability (NCI-H647; first compound 8 µM): 1.35 | relative viability (HARA; first compound 0.08 µM): 1.01 | relative viability (HARA; first compound 0.253 µM): 1.2 | relative viability (HARA; first compound 0.8 µM): 1.08 | relative viability (HARA; first compound 2.53 µM): 0.948 | relative viability (HARA; first compound 8 µM): 0.743 | relative viability (NCI-H838; first compound 0.08 µM): 0.958 | relative viability (NCI-H838; first compound 0.253 µM): 1.49 | relative viability (NCI-H838; first compound 0.8 µM): 0.821 | relative viability (NCI-H838; first compound 2.53 µM): 0.859 | relative viability (NCI-H838; first compound 8 µM): 0.899 | relative viability (HCC-44; first compound 0.08 µM): 0.681 | relative viability (HCC-44; first compound 0.253 µM): 0.532 | relative viability (HCC-44; first compound 0.8 µM): 0.696 | relative viability (HCC-44; first compound 2.53 µM): 0.623 | relative viability (HCC-44; first compound 8 µM): 0.548 | relative viability (NCI-H2126; first compound 0.08 µM): 0.707 | relative viability (NCI-H2126; first compound 0.253 µM): 0.809 | relative viability (NCI-H2126; first compound 0.8 µM): 0.708 | relative viability (NCI-H2126; first compound 2.53 µM): 0.667 | relative viability (NCI-H2126; first compound 8 µM): 0.592 | relative viability (LCLC-103H; first compound 0.08 µM): 1.06 | relative viability (LCLC-103H; first compound 0.253 µM): 1.1 | relative viability (LCLC-103H; first compound 0.8 µM): 1.08 | relative viability (LCLC-103H; first compound 2.53 µM): 1.06 | relative viability (LCLC-103H; first compound 8 µM): 1.06 | relative viability (NCI-H2023; first compound 0.08 µM): 0.611 | relative viability (NCI-H2023; first compound 0.253 µM): 0.747 | relative viability (NCI-H2023; first compound 0.8 µM): 0.723 | relative viability (NCI-H2023; first compound 2.53 µM): 0.458 | relative viability (NCI-H2023; first compound 8 µM): 0.416 | relative viability (201T; first compound 0.08 µM): 0.99 | relative viability (201T; first compound 0.253 µM): 1.04 | relative viability (201T; first compound 0.8 µM): 0.929 | relative viability (201T; first compound 2.53 µM): 0.974 | relative viability (201T; first compound 8 µM): 0.986 | relative viability (NCI-H441; first compound 0.08 µM): 0.549 | relative viability (NCI-H441; first compound 0.253 µM): 0.619 | relative viability (NCI-H441; first compound 0.8 µM): 0.759 | relative viability (NCI-H441; first compound 2.53 µM): 0.584 | relative viability (NCI-H441; first compound 8 µM): 0.632 | relative viability (NCI-H650; first compound 0.08 µM): 0.829 | relative viability (NCI-H650; first compound 0.253 µM): 0.854 | relative viability (NCI-H650; first compound 0.8 µM): 0.782 | relative viability (NCI-H650; first compound 2.53 µM): 0.642 | relative viability (NCI-H650; first compound 8 µM): 0.7 | relative viability (LOU-NH91; first compound 0.08 µM): 0.946 | relative viability (LOU-NH91; first compound 0.253 µM): 0.923 | relative viability (LOU-NH91; first compound 0.8 µM): 0.845 | relative viability (LOU-NH91; first compound 2.53 µM): 0.769 | relative viability (LOU-NH91; first compound 8 µM): 0.893 | relative viability (NCI-H1395; first compound 0.08 µM): 1.25 | relative viability (NCI-H1395; first compound 0.253 µM): 1.06 | relative viability (NCI-H1395; first compound 0.8 µM): 1.26 | relative viability (NCI-H1395; first compound 2.53 µM): 0.941 | relative viability (NCI-H1395; first compound 8 µM): 1.07 | relative viability (NCI-H2347; first compound 0.08 µM): 0.918 | relative viability (NCI-H2347; first compound 0.253 µM): 1.15 | relative viability (NCI-H2347; first compound 0.8 µM): 0.998 | relative viability (NCI-H2347; first compound 2.53 µM): 1.02 | relative viability (NCI-H2347; first compound 8 µM): 1.11 | relative viability (NCI-H1993; first compound 0.08 µM): 0.739 | relative viability (NCI-H1993; first compound 0.253 µM): 0.683 | relative viability (NCI-H1993; first compound 0.8 µM): 0.687 | relative viability (NCI-H1993; first compound 2.53 µM): 0.799 | relative viability (NCI-H1993; first compound 8 µM): 0.859
